# Data taken from patent US20060134124A1, “Immunosuppression” (ML Laboratories PLC, priority 1998, published 2006).
# Tests used:
# T cell proliferation = T cell proliferation response to whole ovalbumin or OVA 323-339 peptide after immunisation with whole ovalbumin; format: in vivo, C57BL-6 mice; conditions: following immunisation with whole ovalbumin; FIG. 13
# Description: FIG. 13 represents a comparison of T cell proliferation response to whole ovalbumen or the ovalbumen peptide Ova323-339;
# The peptide sequences and amino acid positions for peptides 1-10 relate to the position of the B7-2 peptide sequence within porcine B7-2. The amino acid position for the ova sequence is only indicated for the Ova peptide. A 17 amino acid peptide from chicken egg albumin (ovalbumin) was selected as the T cell epitope, OVA323-339 (ISQAVHAAHAEINEAGR). This epitope was selected on the basis of published reports for the generation of a H-2^b restricted T cell response (76, 77). […] Peptides were generated on a peptide synthesiser (Genosys) and crude peptides were purified by HPLC to greater than 70% purity.
# murine CD86 = biological target: T1, murine CD86 (Mus musculus, UniProt P42082); experiment: Inhibition of costimulation by murine CD86 by peptide sera; format: cell-based; conditions: FIG. 15b
# T1 sequence (P42082 24-309): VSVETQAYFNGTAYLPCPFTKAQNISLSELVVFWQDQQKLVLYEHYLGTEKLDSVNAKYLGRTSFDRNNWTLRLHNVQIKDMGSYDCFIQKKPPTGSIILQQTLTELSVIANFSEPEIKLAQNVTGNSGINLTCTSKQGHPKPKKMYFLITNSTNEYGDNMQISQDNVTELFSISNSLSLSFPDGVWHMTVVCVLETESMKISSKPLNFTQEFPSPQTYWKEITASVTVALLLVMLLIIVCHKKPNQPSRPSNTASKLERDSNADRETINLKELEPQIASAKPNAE
# porcine B7-2 peptides = experiment: Peptide ELISA of sera from mice immunised with OVA-B7-2 chimeric peptides; format: in vivo, C57BL-6 mice; conditions: for level of peptide-specific IgG in the sera of immunised mice: immunisation with peptide 4 or 6, FIGS. 15a and 15b; for binding of antisera to B7 peptide versus ova control by peptide ELISA: sera of mice that received a pool of all nine B7-2 peptides, FIG. 14a or 14b
# Description: C57BL-6 mice are immunised with whole ovalbumin in CFA, followed by either control peptide (OVA peptide) or CS peptides (OVA-B7-2 constructs) for three weekly immunisations. Blood is collected following sacrifice and sera prepared using a standard technique. Presence of specific mouse anti-porcine B7-2 IgG and/or IgM Ab is detected by one of two strategies.
# (§1) Peptide ELISAs are used to screen for the presence of anti-peptide antibody in the sera. Peptides are coated to plates by virtue of aldehyde linkages to allow free access of Ab to the peptide (78), Plates are coated with individual peptides or the ova control peptide to enable the identification of specific peptides of interest. To detect reactivity of sera with the native B7-2 molecule expressed on the surface of PoB7-2 transfected P815 cells, flow cytometry is performed following surface staining. Having identified CS peptide of interest (peptide ELISA positive and recognising native B7-2) the sera is used to inhibit in vitro T cell proliferative responses. This determines whether the antibody is a blocking antibody.
# (§2) Immunisations involved two groups of mice, one received a pool of all nine B7-2 peptides, and one receiving ova control peptide. The harvested sera were screened by peptide ELISA (FIG. 14a or 14b) which enabled the identification of peptides of interest. […] Peptide 4 and 6 were selected as candidate peptides and used in subsequent immunisation protocol. […] Similar protocols will be followed with peptide 2.
# [1] = system: direct mouse anti porcine T cell responses; experiment: Inhibition of in vitro T cell proliferative responses by peptide sera; format: cell-based; conditions: FIG. 15b
# Method: as §1
# [2] = system: native porcine B7-2 molecule expressed on the surface of porcine B7-2 transfected P815 cells; experiment: Flow cytometry of immunised-mouse sera on poB7-2 transfected P815 cells; format: binding; conditions: for recognition (staining) of porcine B7-2 transfected P815 cells by sera: sera of mice immunised with single peptide, FIGS. 17a and 17b
# Description: (II) Transfected P815 cells are crucial reagents for the detection of porcine anti-B7-2 antibody in the sera of immunised mice which have undergone the chimeric peptide immunisation regimen. Flow cytometric analysis with control or poB7-2-transfected P815 cells, reflects the specificity of sera for B7-2.
# as §1, §2
inhibition of costimulation by murine CD86 by sera (murine CD86),Substance,proliferative response of C57BL-6 mice (H-2b haplotype) (T cell proliferation),level of peptide-specific IgG in the sera of immunised mice (porcine B7-2 peptides),"specificity of the sera for the peptide versus ova control (porcine B7-2 peptides; peptide ELISA, FIG. 16)",binding of antisera to B7 peptide versus ova control by peptide ELISA (porcine B7-2 peptides),inhibition of direct mouse anti porcine T cell responses by sera [1],recognition (staining) of porcine B7-2 transfected P815 cells by sera [2],staining of untransfected control P815 cells by sera [2]
,ovalbumin [chicken egg albumin used whole for priming immunisation],mount a proliferative response,,,,,,
no inhibition,ISQAVHAAHAEINEAGRGLVPIHQMS [Peptide 4],,significant level of IgG,specificity of the sera for peptide 4 and not to ova control,preferential binding to B7 peptide than to ova control,inhibition of direct mouse anti porcine T cell responses,specifically recognise the native porcine B7-2 molecule,do not stain
,ISQAVHAAHAEINEAGRLPCHFTNSQ [Peptide 2],,,,preferential binding to B7 peptide than to ova control,,,
no inhibition,ISQAVHAAHAEINEAGRCSSTQGYPEPQR [Peptide 6],,significant level of IgG,,preferential binding to B7 peptide than to ova control,inhibition of direct mouse anti porcine T cell responses,specifically recognise the native porcine B7-2 molecule,do not stain
,"ISQAVHAAHAEINEAGR [Ova Peptide, control peptide, reference compound]",mount a proliferative response,,,,,do not stain,do not stain
